Reference: patent US20120003667A1, “ELECTROPHORETIC TAG-BASED IN VITRO ASSAY TO QUANTIFY DIMERIZATION OF P66 AND P51 SUB-UNITS OF HIV-1 REVERSE TRANSCRIPTASE (RT)” (priority 2007, published 2012)

Legend:
[1] = target: T1, heterodimerization of p66 and p51 (Human immunodeficiency virus type 1 group M subtype B, UniProt P12497); details: literature comparison values; cited from earlier work
T1 construct: active form of HIV-1 RT is a heterodimer containing two polypeptides, p66 and p51

[2] = target: T2, His-p51/FLAG-p66 RT heterodimer (Human immunodeficiency virus type 1 group M subtype B, UniProt P12497); experiment: Microplate eTag assay to monitor p66-p51 RT dimerization, in the presence of drugs; assay type: binding; details: drug concentration varied from 0 μM to 100 μM; released eTag quantitated; read-out: IC50 (heterodimerization of p66 and p51)
T2 construct: The gene for the 66 kDa subunit of HIV-1 RT; The gene for the 51 kDa subunit of HIV-1 RT; made in house; host or cells: E. coli
Method: The assay was performed by first capturing His-tagged p51 on Ni^2+-NTA microplates, and then adding FLAG-tagged p66 to form the heterodimer. To the heterodimer complex was added a solution of eTag covalently linked to FLAG antibodies resulting His-p51/FLAG-p66 RT heterodimer complexed to an eTag immobilized on the microplates. After washing to remove unbound material, the eTag was cleaved by the addition of methylene blue, and the amount of released eTags was measured and quantitated by electrophoretic separation.

With calmodulin [CAM] as the substance, how does the IC50 [1] read?
The IC50 was 1.9 µM.

What about the IC50 [2] of the same substance?
The IC50 was 3.7 µM.

With “[2′,5′-bis-o-(butyldimethylsilyl)-3′-spiro 5′-(4′-amino-1′,2′-oxothiole-2′,2′-dioxide] [TSAO]” as the substance, how does the IC50 [1] read?
The IC50 was 6.7 µM.

And the IC50 [2]?
Its IC50 is 6.4 µM.
